Entries after “also recorded” stand apart in the source; their conditions may differ.
Experiments:
Format in all cases: in vivo, guinea pig
cochlear vasculature [1] = assay: Cochlear blood flow (laser Doppler), blood pressure and vascular conductance after 8-iso-PGF2a / SQ29,548 infusion; conditions: for blood pressure (BP) response / cochlear blood flow (CBF) response: after administration, dose series; for cochlear vascular conductance (VC = CBF/BP) response: intravenous infusion
Protocol: (§1) The infusion rate was controlled by a syringe pump. Systemic infusions were achieved via a cannula inserted in the right jugular vein. Changes in cochlear blood flow (CBF) were measured with the fine probe of a laser Doppler flowmeter (LDF) placed on the bony surface of the cochlea. Arterial blood pressure (BP) and heart rate were monitored from a cannula in the right carotid artery. BP and CBF were continuously recorded, as was their ratio (CBF/BP) as a derived measure of cochlear vascular […] (VC). The results are shown if FIGS. 10-18.

cochlear vasculature [2] = assay: Noise-induced cochlear vasoconstriction (120 dB, one hour); conditions: given intraperitoneally 1 hour before noise exposure
Protocol: as §1
Three guinea pigs were exposed to high intensity (120 dB) noise for one hour (6×10 min, red lines in top panel). BP, CBF, and VC measurements were made during 2-min off-noise periods. Over the course of the exposure, there was pronounced vasoconstriction (VC) and decrease in cochlear blood flow (CBF), while BP remained stable (mean±SD).
Noise exposure was as in FIG. 15. However, when the antioxidant glutathione-monoethyl ester (GSHE) was given intraperitoneally 1 hour before noise exposure, the effect of noise on CBF and VC was eliminated.

8-isoprostane = assay: Cochlear 8-isoprostane (lipid peroxidation) by enzyme immunoassay after noise exposure; conditions: for 8-isoprostane level in the lateral wall / 8-isoprostane level in the modiolar core / 8-isoprostane level in the organ of Corti: after noise exposure, versus 0.9% NaCl
Protocol: (§2) Each animal received a drug dose before either being noise-exposed for 5 hours or simply placed in the exposure chamber for 5 hours. Auditory brain stem responses (ABR) were measured 2 days before and 10 days after noise exposure or sham exposure. Immediately after the second ABR measurement, animals were sacrificed for histological examination or for measurement of 8-isoprostane.
(§3) Animals were assigned to one of 17 groups (see Table 3). Eight groups were used to assess the effects of these agents on noise-induced threshold (auditory brain stem response, ABR) sensitivity and hair cell damage (cytocochleogram). Nine groups were used to determine the effects on noise-induced lipid peroxidation. Groups were injected intraperitoneally with 5 ml/kg of 0.9% NaCl, 0.2 mg/ml (+)-MK-801, 0.2 mg/ml (−)-MK-801, 0.2 mg/ml L-NAME, 100 mg/ml NAC, or a mixture of 0.2 mg/ml (+)-MK-801 and 100 mg/ml NAC 30 min before being placed in the exposure chamber. Because of the high clearance of PD 174494, one group of animals received 5 ml/kg of 2 mg/ml PD 174494 intraperitoneally 30 min before and 2 hr into noise exposure. A control group received 5 ml/kg of 0.9% NaCl on the same time schedule.
(§4) Animals were exposed to noise in a lighted and ventilated sound exposure chamber while having free access to food and water. The sound chamber was fitted with speakers driven by a noise generator and a power amplifier. Using a ½-inch Brūel and Kjaer condenser microphone and Fast Fourier Transform analyzer, sound levels were measured and calibrated at multiple locations within the sound chamber to ensure uniformity of the stimulus. The stimulus intensity varied by a maximum of 3 dB across measured sites within the exposure chamber. Animals were individually subjected to 4 kHz octave band noise, 115 dB SPL for 5 hours. Two hours after initiation, noise exposure was interrupted for 10 min to perform the second injection of 0.9% NaCl or PD 174494 in groups requiring it.
Animals were anesthetized with xylazine (10 mg/kg) and ketamine (40 mg/kg) given intramuscularly and decapitated. The auditory bullae were removed and the bony capsule of the cochlea was immediately opened.
Guinea pig cochleae were dissected in ice-cold Hanks' balanced salt solution (HBSS, Gibco Laboratories, Grand Island, N.Y.: 1.25 mM CaCl2, 5.55 mM glucose, 0.81 mM MgSO4, 0.44 mM KH2PO4, 136.9 mM NaCl, 0.34 mM Na2HPO4, 5.4 mM KCl, 5.0 mM sodium HEPES, with pH titrated to 7.4 (with NaOH) and osmolality adjusted to 300±1 mOsm with NaCl). Lateral wall tissues (spiral ligament and stria vascularis) and organ of Corti were removed from the modiolar core. The tissues were transferred to a 0.05% dl-dithiothreitol solution to prevent auto-oxidation of arachidonic acid and homogenized with a homogenizer for 30 sec. The homogenate was centrifuged at 7,200×g for 15 min at 4° C. Proteins were measured in aliquots of the supernatant by the Bradford method (Bradford, Anal. Biochem. 72: 248 [1976]). Butyl hydroxytoluene was added to the supernatant to a concentration of 0.1%, followed by 200 μl of ethanol and another homogenization. The homogenate was centrifuged at 1,500×g for 10 min at 4° C. Two hundred μl of 15% KOH was added to the supernatant for determination of the levels of free and esterified 8-isoprostane, and the mixture was incubated at 40° C. for 1 hr. The solution was then acidified to pH 3 with HCl. The samples were applied to octadecylsilyl silica columns pre-activated with methanol and distilled water and subsequently washed with distilled water and then with hexane. 8-isoprostane was eluted with ethyl acetate containing 1% methanol, and the eluate was evaporated under N2 to dryness. The samples were dissolved in 30 μl of acetone and spotted on silica gel G thin layer chromatography plates, which were developed in chloroform/methanol/acetic acid/water (80:18:1:0.8, v/v). 8-isoprostane was located from the Rf of standards run on the same plate and visualized by spraying with 3.5% phosphomolybdic acid. […]

[3] = Noise-induced permanent ABR threshold shift; conditions: 10 days after 4 kHz octave band noise, 115 dB SPL, 5 hours; 2, 4, 8, 16, 20 kHz; drug i.p. 30 min before noise; versus 0.9% NaCl
Protocol: as §2, §3
Animals were anesthetized with xylazine (10 mg/kg) and ketamine (40 mg/kg) given intramuscularly. A differential active needle electrode was placed subcutaneously below the test ear and a reference electrode at the vertex. A ground electrode was positioned below the contralateral ear. The sound stimuli consisted of 15 ms tone bursts, with a rise-fall time of 1 ms at frequencies of 2, 4, 8, 16 and 20 kHz, and were generated using a Fordham Audio Generator (Model AG-298, Fordham Radio Supply, Hauppauge N.Y.). They were presented to the right external auditory meatus in a closed acoustic system through an ear bar connected to a transducer (Beyer DT-48, Beyer Dynamic, Farmingdale N.Y.). The sound intensity was varied by 5 dB intervals. One thousand twenty-four tone presentations given at the rate of 9 s^−1 were averaged using a microcomputer and custom software to obtain a waveform. Hearing threshold was defined by the consistent appearance of ABR peaks III or IV. Test/retest reliability was within 5 dB. After the second ABR measurement, the cochleae were harvested.
as §4, with “Animals were individually subjected to 4 kHz octave band noise, 115 dB SPL for 5 hours. Two hours after initiation, noise exposure was interrupted for 10 min to perform the second injection of 0.9% NaCl or PD 174494 in groups requiring it.” left out

[4] = tested on: outer and inner hair cells; assay: Hair cell count (cytocochleogram) after noise exposure; conditions: for hair cell loss: hair cell type not specified; for inner hair cell loss / outer hair cell loss: region 9-13 mm from apex, 10 days after noise, versus 0.9% NaCl
Protocol: as §2, §3, §4
Animals were sacrificed under deep anesthesia. The bullae were quickly removed and transferred into 4% paraformaldehyde in 0.01 M phosphate-buffered saline (PBS)(pH 7.4). The bone near the apex, round window, and oval window was opened, followed by two gentle local perfusions from the apex with 1 ml of 4% paraformaldehyde each. The tissue was kept in the fixative for 12 hr. After removal of the bony capsule and the lateral wall tissues, the modiolar core including the organ of Corti was removed from the temporal bone. Following permeabilization with 0.3% Triton X-100 for 10 min, whole-mounts of the organ of Corti were stained for actin with fluorescent phalloidin for 30 min to outline hair cells and their stereocilia for a quantitative assessment (Raphael and Altschuler, Hear. Res., 31:173 [1991]). Slide preparations were observed under fluorescence microscopy and missing (as shown by scar formation) and present (as shown by intact stereocilia) hair cells in the sensory epithelium were counted from the apex to the base in 0.19 mm segments. Percent hair cell loss was calculated for each segment. A group mean cytocochleogram was created by averaging the loss at each segment. Differences were evaluated for statistical significance on the basis of data from the region 9-13 mm from apex, the region of greatest damage in a previous study (Ohinata et al., Hear. Res. 146: 28 [2000]).

[5] = AICA infusion of ~25 μg/kg over 2 min, minimal BP change

Molecule | 8-isoprostane level in the lateral wall (8-isoprostane) | 8-isoprostane level in the modiolar core (8-isoprostane) | 8-isoprostane level in the organ of Corti (8-isoprostane) | noise-induced ABR threshold shift [3] | hair cell loss [4] | inner hair cell loss [4] | outer hair cell loss [4] | further results
CCCCC[C@H](O)/C=C/[C@@H]1[C@H](C/C=C\CCCC(=O)O)[C@@H](O)C[C@H]1O [8-iso-PGF2a, 8-iso-prostaglandin F2a] |  |  |  |  |  |  |  | BP during AICA infusion (cochlear vasculature [1]; 2 min AICA infusion, some of the subjects): no significant elevation in BP; decrease in CBF (cochlear vasculature [1]; [5]): 25-30%; decrease in VC (cochlear vasculature [1]; [5]): 25-30%; blood pressure (BP) response (cochlear vasculature [1]): increasing response; cochlear blood flow (CBF) response (cochlear vasculature [1]): increasing response; blood pressure (BP) response (cochlear vasculature [1]; listed as 8-isoPGF2a): rapid and concentration-dependent change; cochlear blood flow (CBF) response (cochlear vasculature [1]; listed as 8-isoPGF2a): rapid and concentration-dependent change; cochlear vascular conductance (VC = CBF/BP) response (cochlear vasculature [1]): dose-dependent constriction of the cochlear vasculature; also recorded: Strong concentration-dependent decrease; also recorded: clear dose-dependent decrease; cochlear vascular conductance (VC = CBF/BP) response (cochlear vasculature [1]; listed as 8-isoPGF2a): strong dose-dependent decrease; dose at which the VC decrease approaches saturation (cochlear vasculature [1]; intravenous, mean maximum VC response 1.5-2.5 min after infusion initiation): approximately 30 mg/kg; BP, CBF and VC response to AICA infusion (cochlear vasculature [1]; sequential 1.25 min infusions via AICA, or 2 min AICA infusion): no significant response to the lower two doses; also recorded: dose-dependent constriction of the cochlear vasculature; also recorded: local vasoconstrictive response
CCOC(=O)CNC(=O)[C@H](CS)NC(=O)CC[C@H](N)C(=O)O [GSHE, glutathione-monoethyl ester] |  |  |  |  |  |  |  | effect of noise on CBF (cochlear vasculature [2]): eliminated; effect of noise on VC (cochlear vasculature [2]): eliminated
COC(=O)[C@@H](N)CCCNC(=N)N[N+](=O)[O-] [L-NAME, L-N^ω-Nitroarginine methyl ester] | suppressed; also recorded: decreased 8-isoprostane level | suppressed | decreased 8-isoprostane level in the organ of Corti | significantly attenuated at 2 kHz; also recorded: increased at 20 kHz; also recorded: not threshold shift | had no effect | increased | not affected | 
CC(=O)N[C@@H](CS)C(=O)O [NAC, N-acetylcysteine] | attenuated | attenuated | attenuated | significantly attenuated threshold shifts at all frequencies | successful in preventing hair cell loss | attenuated; also recorded: some protective effect | attenuated | 
Cc1ccc(CC2(O)CCN(CCOc3ccc(O)cc3)CC2)cc1 [PD 174494] | did not influence | suppressed | suppressed; also recorded: less with PD 174494 than with the other treatments | significantly attenuated noise-induced hearing loss at 2, 4 and 8 kHz; also recorded: decreased threshold shift |  | protected only inner hair cells | protected only inner hair cells | effect on 8-isoprostane formation relative to that of (+)-MK-801 (8-isoprostane; organ of Corti and modiolar core): about half; inner hair cell loss ([4]; listed as PD 174474): some protective effect
O=C(O)CCC/C=C\C[C@@H]1[C@H](CNNC(=O)Nc2ccccc2)[C@H]2CC[C@@H]1O2 [SQ29,548] |  |  |  |  |  |  |  | decrease in cochlear vascular constriction (cochlear vasculature [1]; 35 mg/kg 8-iso-PGF2a i.v. before and after AICA infusion of antagonist, two subjects): 12%; effect on vasoconstriction (VC) by isoPGF2a (cochlear vasculature [1]; addition of the antagonist): blocked; maximum mean VC value during SQ29,548 infusion, less than after the initial 8-iso-PGF2a infusion (cochlear vasculature [1]; continuous AICA infusion of antagonist, 8-iso-PGF2a about 75-95 mg/kg i.v. over 20 sec, three subjects): 8-10%
(+)-MK-801 | did not influence | attenuated | attenuated | significantly attenuated threshold shifts at all frequencies; also recorded: decreased threshold shift | successful in preventing hair cell loss | attenuated; also recorded: some protective effect | attenuated | 
(−)-MK-801 | did not affect | did not affect | did not affect |  |  | not affected | decreased | 

Source: US7700111B2, “Auditory nerve protection and re-growth” (The Regents of the University of Michigan, priority 2002, dated 2010)
